{"source": "patent US11123328B2", "about": "(UNIVERSITY HEALTH NETWORK, priority 2017, dated 2021)", "key": {"animal hearts": {"tested_on": "animal hearts", "assay": "Optical mapping and LVDP in hearts subjected to myopathic insults, azumolene pre-treated or not (Example 3)", "details": "for calcium alternans ratio map values: scale 0.00 to 0.40", "description": "FIGS. 6A and 6B are a schematic and images, respectively, of the experimental protocol of animal hearts, pre-treated or not with azumolene, subjected to myopathic insults.\nThe effect of azumolene was further investigated. Optical mapping and left ventricular developed pressure (LVDP) were measured at baseline and following inducement of myopathic insults to the hearts (see FIGS. 6A and 6B). […] FIGS. 8A and 8B show the occurrence of spatial dyssynchronic in untreated compared to azumolene-treated hearts."}, "[1]": {"tested_on": "Langendorff-perfused rabbit hearts", "assay": "Calcium alternans by optical mapping in Langendorff-perfused rabbit hearts stressed by VF (Example 1)", "details": "for CaAR (calcium alternans ratio) / SD of CaAR (surrogate for spatial dyssynchrony): azumolene 20 μM; for SD of CaAR (surrogate for spatial dyssynchrony): n=8", "text": "The term “cardiac dyssynchrony” as used herein means improper synchronization of calcium cycling in the heart or a part thereof, including for example temporal dyssynchrony and/or spatial dyssynchrony, optionally due to calcium leak from ryanodine type 2 receptor (RyR2) channels, leading to decreased calcium uptake and/or release in the sarcoplasmic reticulum (SR). RyR2 are found primarily in cardiac muscle and are a major mediator for SR release of calcium ions. Spatio-temporal dyssynchrony of calcium alternans can be measured by calculating a calcium alternans ratio (CaAR) for temporal mechanical dyssynchrony or by measuring the standard deviation (SD) of CaAR as a surrogate for spatial mechanical dyssynchrony. CaAR can be calculated as the amplitude of a Ca peak divided by the amplitude of a following Ca peak in a calcium transient measurement such as in FIG. 5. The smallest amplitude of Ca peak is divided by the largest amplitude of Ca peak. The larger the ratio the more similar the peak sizes. A ratio of 1 indicates no calcium alternans. Ratios of less than 1, optionally 0.8, 0.7 etc are indicative of cardiac dyssynchrony. Similarly mean standard deviations in calcium alternans ratios of greater than 0.05, greater than 0.06 or greater than 0.07 etc are indicative of cardiac dyssynchrony.\nTheir effect on temporal calcium alternans ratio (CaAR) before and after ventricular fibrillation (VF) (as a surrogate for temporal mechanical dyssynchrony) and standard deviation (SD) of CaAR from the anterior wall of left ventricular, which is used as a surrogate for spatial mechanical dyssynchrony, were assessed. […] Simultaneous optical mapping was performed. Calcium alternans are defined as beat-to-beat variability of 10% or more in calcium transient amplitudes."}, "[2]": {"tested_on": "patients without known cardiac diseases", "assay": "Safety of chronic oral dantrolene: ECG, echo, Holter, stress test in patients (Example 4)"}, "[3]": {"tested_on": "ventricular arrhythmia swine model", "details": "previous work [4]; cited from earlier work"}, "[4]": {"tested_on": "patients without known cardiac disease", "assay": "Safety of chronic oral dantrolene, 10-year experience: ECG and echocardiogram (Example 5)", "text": "If more than 1 electrocardiogram and/or echocardiogram were available for any single patient, all were studied (to assess for any abnormality), but only the latest (with the longest therapy duration) was included in the analysis."}, "[5]": {"tested_on": "patients without known cardiac diseases", "details": "human, in vivo"}, "[6]": {"details": "azumolene pretreatment, following myopathic insults, FIG. 9"}, "[7]": {"details": "both, human, in vivo, 10.9 years"}}, "note": "Entries after “also recorded” stand apart in the source; their conditions may differ.", "data": [{"compound": "O=C1CN(/N=C/c2ncc(-c3ccc(Br)cc3)o2)C(=O)N1", "note": "[azumolene]", "values": [{"measurement": "mean calcium alternans index", "setting": "animal hearts; after myopathic insults, FIG. 7", "result": "untreated-hearts increased significantly compared to azumolene-treated hearts"}, {"measurement": "LVDP", "setting": "animal hearts; [6]", "result": "significantly improved"}, {"measurement": "dp/dtmax", "setting": "animal hearts; [6]", "result": "significantly improved"}, {"measurement": "calcium alternans ratio map values", "setting": "animal hearts; azumolene-treated heart at baseline, FIG. 8A", "result": "0.025 to 0.05"}, {"measurement": "calcium alternans ratio map values", "setting": "animal hearts; azumolene-treated heart post myopathic insults, FIG. 8A", "result": "0.05 to 0.1"}, {"measurement": "mean of standard deviation", "setting": "animal hearts; post myopathic insults, FIG. 8B", "result": "significantly increased in the control group post myopathic insults compared to the azumolene-treated group"}, {"measurement": "spatial calcium release dyssynchrony", "setting": "animal hearts; vs untreated hearts, FIG. 8A", "result": "reduce spatial calcium release dyssynchrony"}, {"measurement": "heterogeneity in calcium alternans in response to myopathic stress", "setting": "[1]", "result": "minimizes heterogenity in calcium alternans"}, {"measurement": "CaAR (calcium alternans ratio)", "setting": "[1]; after 1st VF", "result": "0.97±0.02"}, {"measurement": "SD of CaAR (surrogate for spatial dyssynchrony)", "setting": "[1]; after 1st VF", "result": "0.025±0.003"}, {"measurement": "CaAR (calcium alternans ratio)", "setting": "[1]; after 2nd VF", "result": "0.94±0.02"}, {"measurement": "SD of CaAR (surrogate for spatial dyssynchrony)", "setting": "[1]; after 2nd VF", "result": "0.039±0.004"}, {"measurement": "spatial calcium release dyssynchrony (calcium release tracings)", "setting": "[1]; azumolene-treated vs untreated hearts after VF, FIG. 2", "result": "reduced spacial calcium release dyssynchrony; also recorded: spatial calcium release disordering is abrogated"}, {"measurement": "calcium alternans in ratio maps", "setting": "[1]; post 1st VF at 6.0 Hz, FIG. 5D vs 5B", "result": "fewer calcium alternans"}]}, {"compound": "O=C1CN(/N=C/c2ccc(-c3ccc([N+](=O)[O-])cc3)o2)C(O)=N1", "note": "[dantrolene]", "values": [{"measurement": "heterogeneity in calcium alternans in response to myopathic stress", "setting": "[1]", "result": "minimizes heterogenity in calcium alternans"}, {"measurement": "PR", "setting": "[2]; chronic oral dantrolene (>3 months)", "result": "173 ± 19", "unit": "ms"}, {"measurement": "major cardiac events (life-threatening arrhythmia, sudden death, myocardial infarction)", "setting": "[2]; during dantrolene therapy, most >5 years", "result": "No major cardiac events"}, {"measurement": "effect on the QT", "setting": "[3]", "result": "did not affect the QT"}, {"measurement": "Number of patients with PR >200 ms", "setting": "[4]; [7]", "result": "1 (5) n (%)"}, {"measurement": "Number of patients with QTc >460 ms", "setting": "[4]; [7]", "result": "1 (5) n (%)"}, {"measurement": "QTc of the patient with QTc >460 ms", "setting": "[4]; female, human, in vivo", "result": 465, "unit": "ms"}, {"measurement": "Absolute change in average PR ± SD", "setting": "[4]; human, in vivo", "result": "12 ± 8 (p = 0.14) ms"}, {"measurement": "Absolute change in average QRS ± SD", "setting": "[4]; human, in vivo", "result": "4 ± 3, (p = 0.71) ms"}, {"measurement": "Absolute change in average QTc ± SD", "setting": "[4]; human, in vivo", "result": "12 ± 17, (p = 0.27) ms"}, {"measurement": "PR of the patient with PR >200 ms", "setting": "[4]; human, in vivo", "result": 222, "unit": "ms"}, {"measurement": "QRS or QTc prolongation", "setting": "[4]; in vivo", "result": "did not have QRS or QTc prolongation"}, {"measurement": "conduction and repolarization parameters", "setting": "[4]; in vivo", "result": "within normal limits"}, {"measurement": "dose-related QTc prolongation", "setting": "[4]; in vivo", "result": "No dose-related QTc prolongation"}, {"measurement": "left ventricular (LV) size and systolic function", "setting": "[4]; in vivo", "result": "normal"}, {"measurement": "rhythm in electrocardiograms", "setting": "[4]; in vivo", "result": "sinus rhythm"}, {"measurement": "major cardiac events (serious arrhythmia, sudden death, or myocardial infarction)", "setting": "[4]; mean 10.9±6 years follow-up", "result": "no major cardiac events"}, {"measurement": "LV size and function", "setting": "[5]", "result": "normal"}, {"measurement": "arrhythmia in Holter or stress tests", "setting": "[5]", "result": "No major arrhythmia"}, {"measurement": "rest of the depolarization and repolarization parameters", "setting": "[5]", "result": "within normal limits"}, {"measurement": "rhythm in ECGs", "setting": "[5]", "result": "sinus rhythm"}, {"measurement": "JTc", "setting": "[5]; po", "result": "304 ± 79", "unit": "ms"}, {"measurement": "QRS", "setting": "[5]; po", "result": "98 ± 10", "unit": "ms"}, {"measurement": "QRS or QTc prolongation, arrhythmia, pauses, significant cardiac events", "setting": "[5]; po", "result": "did not have QRS or QTc prolongation, arrhythmia, pauses, or significant cardiac events"}, {"measurement": "effect on LV systolic function", "setting": "[5]; po", "result": "No detrimental effect"}, {"measurement": "mean heart rate", "setting": "[5]; po", "result": "67 (±14)"}]}]}
